# According to patent publication US20220213341A1, “COLORED RESIN PARTICLE DISPERSION, INK, INK SET, INK JET TEXTILE PRINTING METHOD, MANUFACTURING METHOD OF OIL-SOLUBLE DYE, AND PRINTED TEXTILE PRODUCT” (FUJIFILM CORPORATION, priority 2019, published 2022):
# Experiment: MEK solubility of the dyes
# Type: physicochemical
# Details: solubility in methyl ethyl ketone at 20° C.
# Protocol: In the present disclosure, the “oil-soluble dye” means a dye having a solubility of 5 mass % or greater in methyl ethyl ketone at 20° C. (hereinafter, also referred to as “MEK solubility”).
row,SMILES,MEK Solubility [mass %]
1,CCCCCCN(CCCCCC)CCS(=O)(=O)c1ccc(/N=N/c2c(S(=O)(=O)O)cc3cc(S(=O)(=O)O)c(/N=N/c4ccc(S(=O)(=O)CCN(CCCCCC)CCCCCC)cc4)c(O)c3c2N)cc1 [d-8],10
2,CCCCCCCCCCCCSCCS(=O)(=O)c1ccc(/N=N/c2c(S(=O)(=O)O)cc3cc(S(=O)(=O)O)c(/N=N/c4ccc(S(=O)(=O)CCSCCCCCCCCCCCC)cc4)c(O)c3c2N)cc1 [d-3],10
3,CCCCC(CC)COCCCNCCS(=O)(=O)c1ccc(/N=N/c2c(S(=O)(=O)O)cc3cc(S(=O)(=O)O)c(/N=N/c4ccc(S(=O)(=O)CCNCCCOCC(CC)CCCC)cc4)c(O)c3c2N)cc1 (stereo not drawn) [d-4],10
4,CCCCN(CCCC)CCS(=O)(=O)c1ccc(/N=N/c2c(S(=O)(=O)O)cc3cc(S(=O)(=O)O)c(/N=N/c4ccc(S(=O)(=O)CCN(CCCC)CCCC)cc4)c(O)c3c2N)cc1 [d-7],7
5,CC(C)CNCCS(=O)(=O)c1ccc(/N=N/c2c(S(=O)(=O)O)cc3cc(S(=O)(=O)O)c(/N=N/c4ccc(S(=O)(=O)CCNCC(C)C)cc4)c(O)c3c2N)cc1 [d-5],7
6,CC(C)(C)CC(C)(C)NCCS(=O)(=O)c1ccc(/N=N/c2c(S(=O)(=O)O)cc3cc(S(=O)(=O)O)c(/N=N/c4ccc(S(=O)(=O)CCNC(C)(C)CC(C)(C)C)cc4)c(O)c3c2N)cc1 [d-6],10
7,CCCCC(CC)COCCS(=O)(=O)c1ccc(/N=N/c2c(S(=O)(=O)O)cc3cc(S(=O)(=O)O)c(/N=N/c4ccc(S(=O)(=O)CCOCC(CC)CCCC)cc4)c(O)c3c2N)cc1 (stereo not drawn) [d-2],10
8,CCCCCCCCN(CCCCCCCC)CCS(=O)(=O)c1ccc(/N=N/c2c(S(=O)(=O)O)cc3cc(S(=O)(=O)O)c(/N=N/c4ccc(S(=O)(=O)CCN(CCCCCCCC)CCCCCCCC)cc4)c(O)c3c2N)cc1 [d-9],10
